What was measured:
phosphor-Axl = phosphor-Axl (Homo sapiens (Human), UniProt P30530); test: TAM Enzymatic Assay (HTRF), phosphor-Axl; assay type: biochemical; settings: 5.1 nM autophosphorylated Axl, 60 min; read-out: Phos-Axl IC50
c-Mer = c-Mer (Homo sapiens (Human), UniProt Q12866); test: TAM Enzymatic Assay (HTRF), c-Mer; assay type: biochemical; settings: 0.0625 nM c-Mer, ATP-containing substrate solution, 60 min
Tyro3 = Tyro3 (Homo sapiens (Human), UniProt Q06418); test: TAM Enzymatic Assay (HTRF), Tyro3; assay type: biochemical; settings: 0.366 nM Tyro3, 60 min
Protocol: The kinase assay buffer contained 50 mM HEPES, pH7.5, 10 mM MgCl2, 1 mM EGTA, 0.01% NP-40 and 2 mM DTT. 0.1 ul test compounds dissolved in DMSO were transferred from compound plates to white 384-well assay plates (Greiner [sequence] plates). […] 4 ul enzyme solution (or assay buffer for the enzyme blank) was added to the appropriate wells in each plate, and then 4 ul/well substrate solution was added to initiate the reaction. The plate was protected from light and incubated at room temperature for 60 min. […] The plate was incubated for 1 h at room temperature, and HTRF (homogenous time resolved fluorescence) signal was measured on a PHERAstar FS plate reader (BMG labtech). Percentage of inhibition was calculated for each concentration and IC50 value was generated from curve fitting with GraphPad Prism software.

PI3Kδ = PI3Kδ (Homo sapiens (Human), UniProt O00329); settings: cited from earlier work
PI3Kδ, sequence (O00329 whole entry, species assumed): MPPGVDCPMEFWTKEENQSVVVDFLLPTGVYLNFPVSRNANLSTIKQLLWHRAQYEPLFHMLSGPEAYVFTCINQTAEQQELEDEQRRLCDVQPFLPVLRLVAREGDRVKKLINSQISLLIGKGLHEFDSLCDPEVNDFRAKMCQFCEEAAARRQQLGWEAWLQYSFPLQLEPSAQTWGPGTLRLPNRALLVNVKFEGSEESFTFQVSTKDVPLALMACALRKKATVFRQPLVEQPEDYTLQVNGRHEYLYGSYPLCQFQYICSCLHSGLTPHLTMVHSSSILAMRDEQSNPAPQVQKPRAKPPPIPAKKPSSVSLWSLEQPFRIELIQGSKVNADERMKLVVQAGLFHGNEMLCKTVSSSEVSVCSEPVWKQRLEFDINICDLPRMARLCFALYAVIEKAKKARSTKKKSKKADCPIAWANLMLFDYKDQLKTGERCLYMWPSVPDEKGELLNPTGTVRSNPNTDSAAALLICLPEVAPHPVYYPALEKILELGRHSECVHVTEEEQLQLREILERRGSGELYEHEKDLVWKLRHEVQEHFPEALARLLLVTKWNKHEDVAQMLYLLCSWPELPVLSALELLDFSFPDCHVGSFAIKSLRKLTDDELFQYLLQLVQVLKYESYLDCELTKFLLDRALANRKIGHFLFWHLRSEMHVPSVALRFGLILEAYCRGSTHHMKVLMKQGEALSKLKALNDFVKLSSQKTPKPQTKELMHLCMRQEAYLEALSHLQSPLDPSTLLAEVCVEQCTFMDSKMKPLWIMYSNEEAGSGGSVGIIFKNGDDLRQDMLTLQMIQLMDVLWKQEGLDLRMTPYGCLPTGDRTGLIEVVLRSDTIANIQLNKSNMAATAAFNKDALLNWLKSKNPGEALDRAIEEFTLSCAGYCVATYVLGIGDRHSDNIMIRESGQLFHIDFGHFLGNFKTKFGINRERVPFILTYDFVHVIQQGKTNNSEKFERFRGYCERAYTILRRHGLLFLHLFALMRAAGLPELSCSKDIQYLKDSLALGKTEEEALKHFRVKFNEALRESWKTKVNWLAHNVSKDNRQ
PI3Kδ, sequence (P27986 whole entry partner, species assumed): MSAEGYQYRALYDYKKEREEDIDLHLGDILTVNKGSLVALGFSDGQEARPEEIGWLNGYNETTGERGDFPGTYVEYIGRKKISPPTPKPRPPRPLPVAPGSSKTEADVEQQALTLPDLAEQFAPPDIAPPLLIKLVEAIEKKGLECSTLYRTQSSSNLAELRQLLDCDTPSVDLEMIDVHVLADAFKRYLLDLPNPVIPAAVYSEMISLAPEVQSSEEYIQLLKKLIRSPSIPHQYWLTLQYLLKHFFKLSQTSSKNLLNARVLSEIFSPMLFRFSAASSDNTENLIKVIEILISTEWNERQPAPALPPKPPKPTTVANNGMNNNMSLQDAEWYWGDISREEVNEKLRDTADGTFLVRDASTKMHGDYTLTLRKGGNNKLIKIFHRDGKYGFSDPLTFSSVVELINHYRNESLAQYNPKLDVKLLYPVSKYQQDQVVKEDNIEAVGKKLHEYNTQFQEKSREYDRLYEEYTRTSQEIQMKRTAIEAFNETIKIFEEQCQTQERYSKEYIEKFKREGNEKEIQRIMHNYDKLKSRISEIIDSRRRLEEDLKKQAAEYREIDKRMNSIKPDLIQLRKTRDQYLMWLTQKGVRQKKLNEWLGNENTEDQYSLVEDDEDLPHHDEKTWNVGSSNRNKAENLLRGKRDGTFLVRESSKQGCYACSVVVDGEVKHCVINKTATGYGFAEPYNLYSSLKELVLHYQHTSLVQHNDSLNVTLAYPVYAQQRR

phosphor-Axl, sequence (P30530 26-894): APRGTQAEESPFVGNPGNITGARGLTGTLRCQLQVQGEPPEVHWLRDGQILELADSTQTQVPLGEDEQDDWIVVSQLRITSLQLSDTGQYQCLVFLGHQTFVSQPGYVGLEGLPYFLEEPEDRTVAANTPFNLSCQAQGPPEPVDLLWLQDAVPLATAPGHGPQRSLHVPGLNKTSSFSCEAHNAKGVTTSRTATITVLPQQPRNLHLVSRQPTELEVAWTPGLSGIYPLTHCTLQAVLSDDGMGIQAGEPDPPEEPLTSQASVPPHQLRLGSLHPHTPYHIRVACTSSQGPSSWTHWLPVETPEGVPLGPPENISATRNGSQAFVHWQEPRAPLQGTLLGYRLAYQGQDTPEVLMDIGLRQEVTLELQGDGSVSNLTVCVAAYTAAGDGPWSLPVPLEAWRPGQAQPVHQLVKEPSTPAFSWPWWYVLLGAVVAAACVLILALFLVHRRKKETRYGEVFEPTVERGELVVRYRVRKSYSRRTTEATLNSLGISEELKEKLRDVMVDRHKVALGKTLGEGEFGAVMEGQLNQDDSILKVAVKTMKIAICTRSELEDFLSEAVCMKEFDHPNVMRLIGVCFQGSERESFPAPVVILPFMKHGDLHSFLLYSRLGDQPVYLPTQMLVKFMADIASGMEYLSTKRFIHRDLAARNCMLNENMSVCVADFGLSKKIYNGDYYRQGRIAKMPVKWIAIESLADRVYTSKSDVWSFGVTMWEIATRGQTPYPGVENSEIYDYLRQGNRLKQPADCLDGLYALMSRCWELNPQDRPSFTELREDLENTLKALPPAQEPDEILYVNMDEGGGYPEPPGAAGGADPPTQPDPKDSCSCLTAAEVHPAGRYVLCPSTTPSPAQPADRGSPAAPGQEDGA
Tyro3, sequence (Q06418 41-890): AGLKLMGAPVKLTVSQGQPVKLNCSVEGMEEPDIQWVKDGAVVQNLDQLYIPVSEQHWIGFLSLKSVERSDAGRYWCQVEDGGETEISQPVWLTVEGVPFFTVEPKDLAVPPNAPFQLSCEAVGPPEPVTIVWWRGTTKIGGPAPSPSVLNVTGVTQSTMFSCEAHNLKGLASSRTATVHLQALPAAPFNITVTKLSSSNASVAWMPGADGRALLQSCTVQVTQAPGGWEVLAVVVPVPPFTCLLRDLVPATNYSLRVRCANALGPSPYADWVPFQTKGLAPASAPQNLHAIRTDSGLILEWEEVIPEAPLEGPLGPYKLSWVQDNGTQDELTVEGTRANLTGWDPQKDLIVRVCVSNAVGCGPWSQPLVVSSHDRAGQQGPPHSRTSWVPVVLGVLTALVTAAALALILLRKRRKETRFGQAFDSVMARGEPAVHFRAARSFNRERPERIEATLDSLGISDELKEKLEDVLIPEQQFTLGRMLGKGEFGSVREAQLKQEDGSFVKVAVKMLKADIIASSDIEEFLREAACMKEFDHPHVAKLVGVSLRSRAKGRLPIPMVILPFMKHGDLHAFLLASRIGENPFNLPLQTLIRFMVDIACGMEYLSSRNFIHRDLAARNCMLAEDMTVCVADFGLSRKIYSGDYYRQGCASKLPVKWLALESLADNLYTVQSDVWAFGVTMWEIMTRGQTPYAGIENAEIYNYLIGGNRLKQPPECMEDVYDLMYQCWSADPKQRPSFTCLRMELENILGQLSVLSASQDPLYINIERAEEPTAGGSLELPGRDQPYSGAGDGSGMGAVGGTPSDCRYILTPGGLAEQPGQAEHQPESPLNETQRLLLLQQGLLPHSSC
c-Mer, sequence (Q12866 21-999): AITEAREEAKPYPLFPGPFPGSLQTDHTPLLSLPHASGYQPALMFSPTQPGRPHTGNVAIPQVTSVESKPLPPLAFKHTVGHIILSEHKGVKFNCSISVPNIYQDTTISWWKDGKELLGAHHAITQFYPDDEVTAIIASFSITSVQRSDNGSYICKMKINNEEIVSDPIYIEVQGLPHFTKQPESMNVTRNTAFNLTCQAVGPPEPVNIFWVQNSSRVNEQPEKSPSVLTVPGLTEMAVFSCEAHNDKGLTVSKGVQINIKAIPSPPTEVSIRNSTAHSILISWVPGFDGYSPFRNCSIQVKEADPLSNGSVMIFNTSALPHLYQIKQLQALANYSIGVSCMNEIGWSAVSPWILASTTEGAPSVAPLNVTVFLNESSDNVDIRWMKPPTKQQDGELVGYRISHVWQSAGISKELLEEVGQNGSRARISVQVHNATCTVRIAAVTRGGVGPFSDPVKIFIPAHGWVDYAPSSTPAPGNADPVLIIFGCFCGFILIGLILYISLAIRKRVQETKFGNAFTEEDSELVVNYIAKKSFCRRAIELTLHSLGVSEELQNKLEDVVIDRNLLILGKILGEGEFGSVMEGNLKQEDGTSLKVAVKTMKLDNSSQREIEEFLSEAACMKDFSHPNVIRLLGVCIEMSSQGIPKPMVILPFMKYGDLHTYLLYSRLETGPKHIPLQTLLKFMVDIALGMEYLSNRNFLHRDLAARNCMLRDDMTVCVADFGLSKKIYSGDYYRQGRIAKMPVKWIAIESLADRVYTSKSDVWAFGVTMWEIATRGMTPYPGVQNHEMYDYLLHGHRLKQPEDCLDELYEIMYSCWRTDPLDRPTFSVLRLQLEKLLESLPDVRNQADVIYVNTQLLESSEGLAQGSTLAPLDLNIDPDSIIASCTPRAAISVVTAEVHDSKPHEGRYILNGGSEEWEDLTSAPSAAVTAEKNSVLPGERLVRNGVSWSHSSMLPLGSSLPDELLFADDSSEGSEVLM

| IC50 (phosphor-Axl) [nM] | IC50 (c-Mer) [nM] | IC50 (Tyro3) [nM] | Structure (SMILES) | IC50 (PI3Kδ) [nM] |
| --- | --- | --- | --- | --- |
| > 1000 | – | – | CCCCNc1ncc2c(-c3ccc(N4CCOCC4)c(F)c3)nc(C3CCC(O)CC3)n2n1 (single isomer, unassigned) [7 (2nd peak), 4-[2-(Butylamino)-5-(3-fluoro-4-morpholin-4-ylphenyl)imidazo[5,1-f][1,2,4]triazin-7-yl]cyclohexanol] | – |
| 100 to 500 | ≤ 100 | 100 to 500 | CCCCNc1ncc2c(-c3ccc(CN4CCOCC4)cc3)nc([C@H]3CC[C@@H](O)CC3)n2n1 [2 (2nd peak, cis-), cis-4-{2-(Butylamino)-5-[4-(morpholin-4-ylmethyl)phenyl]imidazo[5,1-f][1,2,4]triazin-7-yl}cyclohexanol] | – |
| – | – | – | COc1c(C(C)n2nc(C)c3c(N)ncnc32)cc(Cl)c(C#N)c1C1CN(CCO)C1 (centres unmarked) [Compound 30, 4-[1-(4-amino-3-methyl-1H-pyrazolo[3,4-d]pyrimidin-1-yl)ethyl]-6-chloro-2-[1-(2-hydroxyethyl)azetidin-3-yl]-3-methoxybenzonitrile] | < 50 |
| 100 to 500 | – | 500 to 1000 | CCCCNc1ncc2c(-c3ccc(N4CCOCC4)c(F)c3)nc(C3CCC(O)CC3)n2n1 (single isomer, unassigned) [7 (1st peak), 4-[2-(Butylamino)-5-(3-fluoro-4-morpholin-4-ylphenyl)imidazo[5,1-f][1,2,4]triazin-7-yl]cyclohexanol] | – |
| – | – | – | CCOc1c(C(C)n2nc(C)c3c(N)ncnc32)cc(Cl)c(F)c1C1CNC(=O)C1 (single isomer, unassigned) [Compound 32b, 4-{3-[1-(4-amino-3-methyl-1H-pyrazolo[3,4-d]pyrimidin-1-yl)ethyl]-5-chloro-2-ethoxy-6-fluorophenyl}pyrrolidin-2-one] | < 50 |
| ≤ 100 | ≤ 100 | 100 to 500 | CCCCNc1ncc2c(-c3ccc(CN4CCN(C)CC4)cc3)nc([C@H]3CC[C@H](O)CC3)n2n1 [1 (1st peak, trans-), trans-4-(2-(Butylamino)-5-{4-[(4-methylpiperazin-1-yl)methyl]phenyl}imidazo[5,1-f][1,2,4]triazin-7-yl)cyclohexanol] | – |
